# Reference: publication PMC5218480 (PLoS ONE, 2017)
# System: MV-4-11 cells
# Assay: Gene expression microarray analysis (Affymetrix PrimeView) and GSEA
# Assay type: cell-based, human
# Parameters: RFU PODN (11730768_x_at) / Fold change /veh PODN (11730768_x_at) / RFU LINC00158 (11744669_a_at) / Fold change /veh LINC00158 (11744669_a_at) / RFU DUSP10 (11751237_a_at) / Fold change /veh DUSP10 (11751237_a_at) / RFU ID3 (11757404_x_at) / Fold change /veh ID3 (11757404_x_at) / RFU PLEKHG5 (11737974_s_at) / Fold change /veh PLEKHG5 (11737974_s_at) / RFU LRRC4B (11730491_at) / Fold change /veh LRRC4B (11730491_at) / RFU GIMAP4 (11747438_a_at) / Fold change /veh GIMAP4 (11747438_a_at) / RFU KRT8 (11758183_x_at) / Fold change /veh KRT8 (11758183_x_at) / RFU CNN1 (11734310_a_at) / Fold change /veh CNN1 (11734310_a_at) / RFU VPS37D (11726825_at) / Fold change /veh VPS37D (11726825_at) / RFU C10orf10 (11716522_x_at) / Fold change /veh C10orf10 (11716522_x_at) / RFU KIR2DL2 /// KIR2DL4 /// KIR2DL5A /// KIR2DL5B /// KIR2DS1 /// KIR2DS2 /// KIR2DS3 /// KIR2DS4 /// KIR3DL3 /// KIR3DL3 /// KIR3DS1 (11738374_at) / Fold change /veh KIR2DL2 /// KIR2DL4 /// KIR2DL5A /// KIR2DL5B /// KIR2DS1 /// KIR2DS2 /// KIR2DS3 /// KIR2DS4 /// KIR3DL3 /// KIR3DL3 /// KIR3DS1 (11738374_at) / RFU C1QL1 (11718748_at) / Fold change /veh C1QL1 (11718748_at) / RFU TMPRSS4 (11747572_a_at) / Fold change /veh TMPRSS4 (11747572_a_at) / RFU HAMP (11756126_x_at) / Fold change /veh HAMP (11756126_x_at) / RFU RNFT2 (11725882_a_at) / Fold change /veh RNFT2 (11725882_a_at) / RFU NR4A2 (11747474_a_at) / Fold change /veh NR4A2 (11747474_a_at) / RFU ABCC12 (11746883_a_at) / Fold change /veh ABCC12 (11746883_a_at) / RFU TMEM136 (11760407_x_at) / Fold change /veh TMEM136 (11760407_x_at) / RFU CLDN22 /// WWC2 (11732394_at) / Fold change /veh CLDN22 /// WWC2 (11732394_at) / RFU HLA-DPB1 (11760878_x_at) / Fold change /veh HLA-DPB1 (11760878_x_at) / RFU SPINT1 (11716480_a_at) / Fold change /veh SPINT1 (11716480_a_at) / RFU GAP43 (11754022_s_at) / Fold change /veh GAP43 (11754022_s_at) / RFU A4GNT (11735810_at) / Fold change /veh A4GNT (11735810_at) / RFU PRB3 (11715151_x_at) / Fold change /veh PRB3 (11715151_x_at) / RFU TUBB4B (11761932_at) / Fold change /veh TUBB4B (11761932_at) / RFU CAPN14 (11732068_a_at) / Fold change /veh CAPN14 (11732068_a_at) / RFU TMCC2 (11721928_a_at) / Fold change /veh TMCC2 (11721928_a_at) / RFU IRGQ (11745062_a_at) / Fold change /veh IRGQ (11745062_a_at) / RFU FAM174B (11720279_a_at) / Fold change /veh FAM174B (11720279_a_at) / RFU TMPRSS4 (11748680_a_at) / Fold change /veh TMPRSS4 (11748680_a_at) / RFU FAM212B (11763350_a_at) / Fold change /veh FAM212B (11763350_a_at) / RFU PLEKHG5 (11743358_a_at) / Fold change /veh PLEKHG5 (11743358_a_at) / RFU ZSCAN30 (11745921_a_at) / Fold change /veh ZSCAN30 (11745921_a_at) / RFU CMKLR1 (11741424_a_at) / Fold change /veh CMKLR1 (11741424_a_at) / RFU LOC101060620 /// MAPK8IP1 (11723275_at) / Fold change /veh LOC101060620 /// MAPK8IP1 (11723275_at) / RFU SPTSSB (11747773_x_at) / Fold change /veh SPTSSB (11747773_x_at) / RFU PRSS12 (11739890_at) / Fold change /veh PRSS12 (11739890_at) / RFU BIN1 (11741810_x_at) / Fold change /veh BIN1 (11741810_x_at) / RFU WNT11 (11732464_a_at) / Fold change /veh WNT11 (11732464_a_at) / RFU C10orf10 (11716521_a_at) / Fold change /veh C10orf10 (11716521_a_at) / RFU C5orf56 (11738089_at) / Fold change /veh C5orf56 (11738089_at) / RFU CYB561 (11721691_x_at) / Fold change /veh CYB561 (11721691_x_at) / RFU ANKRD19P (11752326_a_at) / Fold change /veh ANKRD19P (11752326_a_at) / RFU OR2T12 /// OR2T33 /// OR2T8 (11738714_s_at) / Fold change /veh OR2T12 /// OR2T33 /// OR2T8 (11738714_s_at) / RFU VCAN (11748164_a_at) / Fold change /veh VCAN (11748164_a_at) / RFU JSRP1 (11732532_at) / Fold change /veh JSRP1 (11732532_at) / RFU KRTAP10-11 (11738290_x_at) / Fold change /veh KRTAP10-11 (11738290_x_at) / RFU MYO3A (11730013_a_at) / Fold change /veh MYO3A (11730013_a_at) / RFU EBF3 (11725865_a_at) / Fold change /veh EBF3 (11725865_a_at) / RFU CAMK2N1 (11719241_x_at) / Fold change /veh CAMK2N1 (11719241_x_at) / RFU C5orf56 (11738088_a_at) / Fold change /veh C5orf56 (11738088_a_at) / RFU OLFML3 (11715873_a_at) / Fold change /veh OLFML3 (11715873_a_at) / RFU LOC100653217 /// NTM (11731650_a_at) / Fold change /veh LOC100653217 /// NTM (11731650_a_at) / RFU MAPK11 (11762145_a_at) / Fold change /veh MAPK11 (11762145_a_at) / RFU FIZ1 (11724087_x_at) / Fold change /veh FIZ1 (11724087_x_at) / RFU OASL (11726364_x_at) / Fold change /veh OASL (11726364_x_at) / RFU SOX15 (11748057_x_at) / Fold change /veh SOX15 (11748057_x_at) / RFU CD79A (11719716_a_at) / Fold change /veh CD79A (11719716_a_at) / RFU HIST1H1D (11736915_at) / Fold change /veh HIST1H1D (11736915_at) / RFU CASKIN2 (11723855_a_at) / Fold change /veh CASKIN2 (11723855_a_at) / RFU LOC730098 (11760151_x_at) / Fold change /veh LOC730098 (11760151_x_at) / RFU OR4N2 (11742367_at) / Fold change /veh OR4N2 (11742367_at) / RFU PRRT2 (11749266_a_at) / Fold change /veh PRRT2 (11749266_a_at) / RFU SNX32 (11753110_a_at) / Fold change /veh SNX32 (11753110_a_at) / RFU CDHR5 (11726645_a_at) / Fold change /veh CDHR5 (11726645_a_at) / RFU RCAN1 (11760418_a_at) / Fold change /veh RCAN1 (11760418_a_at) / RFU FAM167A (11723789_a_at) / Fold change /veh FAM167A (11723789_a_at) / RFU FAM26E (11764081_at) / Fold change /veh FAM26E (11764081_at) / RFU ISYNA1 (11749810_s_at) / Fold change /veh ISYNA1 (11749810_s_at) / RFU ACY1 (11761880_at) / Fold change /veh ACY1 (11761880_at) / RFU 11764098_at / Fold change /veh 11764098_at / RFU SAMD14 (11745864_x_at) / Fold change /veh SAMD14 (11745864_x_at) / RFU NPB (11741838_a_at) / Fold change /veh NPB (11741838_a_at) / RFU TMPRSS6 (11731388_a_at) / Fold change /veh TMPRSS6 (11731388_a_at) / RFU KRTAP10-2 (11738614_at) / Fold change /veh KRTAP10-2 (11738614_at) / RFU ARHGAP8 /// PRR5-ARHGAP8 (11727945_x_at) / Fold change /veh ARHGAP8 /// PRR5-ARHGAP8 (11727945_x_at) / RFU KRTAP5-7 /// NADSYN1 (11734609_at) / Fold change /veh KRTAP5-7 /// NADSYN1 (11734609_at) / RFU RASL12 (11751679_a_at) / Fold change /veh RASL12 (11751679_a_at) / RFU CDKN2B (11736163_a_at) / Fold change /veh CDKN2B (11736163_a_at) / RFU PRF1 (11729649_at) / Fold change /veh PRF1 (11729649_at) / RFU, ZNF638 /// ZNF638-IT1 / Fold change vs veh, ZNF638 /// ZNF638-IT1 / RFU, PANK3 / Fold change vs veh, PANK3 / RFU, SH3YL1 / Fold change vs veh, SH3YL1 / RFU, ZEB2 / Fold change vs veh, ZEB2 / RFU, NRIP1 / Fold change vs veh, NRIP1 / RFU, PTTG1IP / Fold change vs veh, PTTG1IP / RFU, CAPN2 / Fold change vs veh, CAPN2 / RFU, MED14 / Fold change vs veh, MED14 / RFU, SNORA58 / Fold change vs veh, SNORA58 / RFU, C1orf63 / Fold change vs veh, C1orf63 / RFU, LRRFIP1 / Fold change vs veh, LRRFIP1 / RFU, NDUFAF7 / Fold change vs veh, NDUFAF7 / RFU, SLC12A2 / Fold change vs veh, SLC12A2 / RFU, IBTK / Fold change vs veh, IBTK / RFU, ESF1 / Fold change vs veh, ESF1 / Fold change vs veh, TMEM50B / RFU, TAOK1 / Fold change vs veh, TAOK1 / RFU, ACBD3 / Fold change vs veh, ACBD3 / RFU, TMA16 / Fold change vs veh, TMA16 / RFU, RWDD3 / Fold change vs veh, RWDD3 / RFU, BCAT1 / Fold change vs veh, BCAT1 / RFU, EDEM3 / Fold change vs veh, EDEM3 / RFU, TMEM33 / Fold change vs veh, TMEM33 / RFU, WDR75 / Fold change vs veh, WDR75 / RFU, AHCTF1 / Fold change vs veh, AHCTF1 / RFU, TFRC / Fold change vs veh, TFRC / RFU, ZDHHC17 / Fold change vs veh, ZDHHC17 / RFU, NOM1 / Fold change vs veh, NOM1 / RFU, ARL8B / Fold change vs veh, ARL8B / RFU, ZBTB11 / Fold change vs veh, ZBTB11 / RFU, TAMM41 / Fold change vs veh, TAMM41 / RFU, KIAA1704 /// LOC100996395 / Fold change vs veh, KIAA1704 /// LOC100996395 / RFU, ING1 / Fold change vs veh, ING1 / RFU, TRMT61B / Fold change vs veh, TRMT61B / RFU, FUBP3 / Fold change vs veh, FUBP3 / RFU, TP53 / Fold change vs veh, TP53 / RFU, TNKS2 / Fold change vs veh, TNKS2 / RFU, ZFP14 / Fold change vs veh, ZFP14 / RFU, ACTR2 / Fold change vs veh, ACTR2 / RFU, PPP3R1 / Fold change vs veh, PPP3R1 / RFU, PIK3R1 / Fold change vs veh, PIK3R1 / RFU, HNRNPA1 / Fold change vs veh, HNRNPA1 / RFU, RNF170 / Fold change vs veh, RNF170 / RFU, ZNF28 / Fold change vs veh, ZNF28 / RFU, RNGTT / Fold change vs veh, RNGTT / RFU, OGT / Fold change vs veh, OGT / RFU, BRD1 / Fold change vs veh, BRD1 / RFU, MARS / Fold change vs veh, MARS / RFU, ZNF655 / Fold change vs veh, ZNF655 / RFU, FAHD1 / Fold change vs veh, FAHD1 / RFU, BDP1 / Fold change vs veh, BDP1 / RFU, LRRCC1 / Fold change vs veh, LRRCC1 / RFU, ARID1A / Fold change vs veh, ARID1A / RFU, ZNF146 / Fold change vs veh, ZNF146 / RFU, ZNF330 / Fold change vs veh, ZNF330 / RFU, GPN3 / Fold change vs veh, GPN3 / RFU, C9orf123 / Fold change vs veh, C9orf123 / RFU, N4BP2L2 / Fold change vs veh, N4BP2L2 / RFU, ARFIP1 / Fold change vs veh, ARFIP1 / RFU, FAM179B / Fold change vs veh, FAM179B / RFU, BCL10 / Fold change vs veh, BCL10 / RFU, UHRF1BP1L / Fold change vs veh, UHRF1BP1L / RFU, BET1 / Fold change vs veh, BET1 / RFU, CNOT2 / Fold change vs veh, CNOT2 / RFU, ZNF268 / Fold change vs veh, ZNF268 / Fold change vs veh, ZNF507 / RFU, DGCR2 / Fold change vs veh, DGCR2 / RFU, WDSUB1 / Fold change vs veh, WDSUB1 / Fold change vs veh, HSP90B1 /// MIR3652 / RFU, ADSS / Fold change vs veh, ADSS / RFU, GK / Fold change vs veh, GK / RFU, ZNF148 / Fold change vs veh, ZNF148 / RFU, TAF9 / Fold change vs veh, TAF9 / RFU, SLC1A5 / Fold change vs veh, SLC1A5 / RFU, SLMO2 / Fold change vs veh, SLMO2 / RFU, ABCC4 / Fold change vs veh, ABCC4 / RFU, LOC101060439 /// RAP1B / Fold change vs veh, LOC101060439 /// RAP1B / RFU, RFX7 / Fold change vs veh, RFX7 / RFU, GTPBP10 / Fold change vs veh, GTPBP10 / RFU, CNEP1R1 / Fold change vs veh, CNEP1R1 / RFU, BIVM-ERCC5 /// ERCC5 / Fold change vs veh, BIVM-ERCC5 /// ERCC5 / RFU, ILF3 / Fold change vs veh, ILF3 / RFU 11762660_at / Fold change /veh 11762660_at / RFU VCAN (11757783_s_at) / Fold change /veh VCAN (11757783_s_at) / RFU DDX43 (11728927_at) / Fold change /veh DDX43 (11728927_at) / RFU KRT8 (11758188_x_at) / Fold change /veh KRT8 (11758188_x_at) / RFU NKD1 (11759106_at) / Fold change /veh NKD1 (11759106_at) / RFU SRD5A1 (11742802_a_at) / Fold change /veh SRD5A1 (11742802_a_at) / RFU TPSAB1 /// TPSB2 (11721975_s_at) / Fold change /veh TPSAB1 /// TPSB2 (11721975_s_at) / RFU GSTM3 (11746129_a_at) / Fold change /veh GSTM3 (11746129_a_at) / RFU IL23R (11737362_x_at) / Fold change /veh IL23R (11737362_x_at) / RFU TMEM51 (11727254_a_at) / Fold change /veh TMEM51 (11727254_a_at) / RFU PIWIL2 (11732686_x_at) / Fold change /veh PIWIL2 (11732686_x_at) / RFU ORM1 (11744905_x_at) / Fold change /veh ORM1 (11744905_x_at) / RFU CCDC152 (11743942_at) / Fold change /veh CCDC152 (11743942_at) / RFU ECM1 (11717891_a_at) / Fold change /veh ECM1 (11717891_a_at) / RFU IL23R (11748794_a_at) / Fold change /veh IL23R (11748794_a_at) / RFU TNFAIP8L3 (11732012_x_at) / Fold change /veh TNFAIP8L3 (11732012_x_at) / RFU MBOAT4 (11741988_at) / Fold change /veh MBOAT4 (11741988_at) / RFU 11764193_at / Fold change /veh 11764193_at / RFU TMEM53 (11763286_at) / Fold change /veh TMEM53 (11763286_at) / RFU MAGEB2 (11727129_at) / Fold change /veh MAGEB2 (11727129_at) / RFU TMEM200A (11744735_a_at) / Fold change /veh TMEM200A (11744735_a_at) / RFU CCDC152 (11751479_a_at) / Fold change /veh CCDC152 (11751479_a_at) / RFU FAM211A (11726209_a_at) / Fold change /veh FAM211A (11726209_a_at) / RFU RGS16 (11746705_a_at) / Fold change /veh RGS16 (11746705_a_at) / RFU VCAN (11755009_s_at) / Fold change /veh VCAN (11755009_s_at) / RFU RHOB (11743442_s_at) / Fold change /veh RHOB (11743442_s_at) / RFU RGS16 (11720943_a_at) / Fold change /veh RGS16 (11720943_a_at) / RFU RGS16 (11720944_at) / Fold change /veh RGS16 (11720944_at) / RFU, VPS4B / Fold change vs veh, VPS4B / RFU, CREB1 / Fold change vs veh, CREB1 / RFU, DNAJC13 / Fold change vs veh, DNAJC13 / RFU, GNAQ / Fold change vs veh, GNAQ / RFU, CDK5R1 / Fold change vs veh, CDK5R1 / RFU, ZRANB3 / Fold change vs veh, ZRANB3 / RFU, CUL4A / Fold change vs veh, CUL4A / RFU, CCNY / Fold change vs veh, CCNY / RFU, UFL1 / Fold change vs veh, UFL1 / RFU, COG3 / Fold change vs veh, COG3 / RFU, DIAPH2 / Fold change vs veh, DIAPH2 / RFU, SKA2 / Fold change vs veh, SKA2 / RFU, AFF3 / Fold change vs veh, AFF3 / RFU, LMF1 / Fold change vs veh, LMF1 / RFU, IPO11 / Fold change vs veh, IPO11 / RFU, DFFB / Fold change vs veh, DFFB / RFU, FOXP1 / Fold change vs veh, FOXP1 / RFU, CARD8 / Fold change vs veh, CARD8 / RFU, STRN3 / Fold change vs veh, STRN3 / RFU, ADK / Fold change vs veh, ADK / RFU, RASSF2 / Fold change vs veh, RASSF2 / RFU, WIPF1 / Fold change vs veh, WIPF1 / RFU, LARP1B / Fold change vs veh, LARP1B / RFU, RASA1 / Fold change vs veh, RASA1 / RFU, RB1 / Fold change vs veh, RB1 / RFU, PPFIA1 / Fold change vs veh, PPFIA1 / RFU, MAT2A / Fold change vs veh, MAT2A / RFU, CCT5 / Fold change vs veh, CCT5 / RFU, WDR92 / Fold change vs veh, WDR92 / RFU, CUX1 / Fold change vs veh, CUX1 / RFU, TTC7A / Fold change vs veh, TTC7A / RFU, TMEM135 / Fold change vs veh, TMEM135 / RFU, DEPTOR / Fold change vs veh, DEPTOR / RFU, CPM / Fold change vs veh, CPM / RFU, DNAJB6 / Fold change vs veh, DNAJB6 / RFU, CACNA2D3 / Fold change vs veh, CACNA2D3 / RFU, DTX4 / Fold change vs veh, DTX4 / RFU, TFCP2 / Fold change vs veh, TFCP2 / RFU, GMCL1 /// GMCL1P1 / Fold change vs veh, GMCL1 /// GMCL1P1 / RFU, AEBP2 / Fold change vs veh, AEBP2 / RFU, SNHG1 /// SNORD22 /// SNORD25 /// SNORD26 /// SNORD27 /// SNORD28 /// SNORD29 /// SNORD31 / Fold change vs veh, SNHG1 /// SNORD22 /// SNORD25 /// SNORD26 /// SNORD27 /// SNORD28 /// SNORD29 /// SNORD31 / Fold change (Aza/veh), C12orf56 (ProbeSet 11735607_a_at) / Fold change (ACY-1035/veh), C12orf56 (ProbeSet 11735607_a_at) / Fold change (Aza/veh), FGFR1OP (ProbeSet 11751329_s_at) / Fold change (ACY-1035/veh), FGFR1OP (ProbeSet 11751329_s_at) / Fold change (Aza/veh), VPS36 (ProbeSet 11739960_a_at) / Fold change (ACY-1035/veh), VPS36 (ProbeSet 11739960_a_at) / RFU SYPL1 (11715823_x_at) / Fold change /veh SYPL1 (11715823_x_at) / RFU IGFBP7 (11715501_s_at) / Fold change /veh IGFBP7 (11715501_s_at) / RFU REEP3 (11722064_at) / Fold change /veh REEP3 (11722064_at) / RFU IGLL1 (11728026_x_at) / Fold change /veh IGLL1 (11728026_x_at): dose or concentration left out as unconfirmed
# Conditions: ProbeSet 11748335_a_at; LIST B
compound,measurement,value
Nc1ncn([C@@H]2O[C@H](CO)[C@@H](O)[C@H]2O)c(=O)n1 [azacitidine],"Fold change vs veh, SLMO2",0.87
